Measurements from the supplement of paper PMC10307832.

Tests used:
Test in all cases: relative viability (nuclei count vs DMSO), 5 days (fraction); higher = more cells survive
AZD8055 + Linsitinib = compound: COc1ccc(-c2ccc3c(N4CCOC[C@@H]4C)nc(N4CCOC[C@@H]4C)nc3n2)cc1CO [AZD8055] + C[C@]1(O)C[C@@H](c2nc(-c3ccc4ccc(-c5ccccc5)nc4c3)c3c(N)nccn32)C1 [Linsitinib] (partner 1 µM)
Outline: (§1)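 Lung cancer cell lines were pin-tool dosed in 1536-well plates on the day after seeding, with either a lone drug or a fixed anchor-drug dose plus five library-drug doses (not always all listed) in √10 steps. Nuclei were counted on 4× images after 5 days. Relative viability is the ratio of treated-well to vehicle-well nuclei counts, with each value a median of duplicate plates.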

AZD8055 + Pictilisib = compound: COc1ccc(-c2ccc3c(N4CCOC[C@@H]4C)nc(N4CCOC[C@@H]4C)nc3n2)cc1CO [AZD8055] + CS(=O)(=O)N1CCN(Cc2cc3nc(-c4cccc5[nH]ncc45)nc(N4CCOCC4)c3s2)CC1 [Pictilisib] (partner 1 µM)
Outline: as §1

AZD8055 + Alpelisib = compound: COc1ccc(-c2ccc3c(N4CCOC[C@@H]4C)nc(N4CCOC[C@@H]4C)nc3n2)cc1CO [AZD8055] + Cc1nc(NC(=O)N2CCC[C@H]2C(N)=O)sc1-c1ccnc(C(C)(C)C(F)(F)F)c1 [Alpelisib] (partner 2 µM)
Outline: as §1

AZD8055 + Decitabine = compound: COc1ccc(-c2ccc3c(N4CCOC[C@@H]4C)nc(N4CCOC[C@@H]4C)nc3n2)cc1CO [AZD8055] + Nc1ncn([C@H]2C[C@H](O)[C@@H](CO)O2)c(=O)n1 [Decitabine] (partner 2 µM)
Outline: as §1

Cell Line	relative viability (AZD8055 + Linsitinib; first compound 0.01 µM)	relative viability (AZD8055 + Linsitinib; first compound 0.03162 µM)	relative viability (AZD8055 + Linsitinib; first compound 0.1 µM)	relative viability (AZD8055 + Linsitinib; first compound 0.3162 µM)	relative viability (AZD8055 + Linsitinib; first compound 1 µM)	relative viability (AZD8055 + Pictilisib; first compound 0.01 µM)	relative viability (AZD8055 + Pictilisib; first compound 0.03162 µM)	relative viability (AZD8055 + Pictilisib; first compound 0.1 µM)	relative viability (AZD8055 + Pictilisib; first compound 0.3162 µM)	relative viability (AZD8055 + Pictilisib; first compound 1 µM)	relative viability (AZD8055 + Alpelisib; first compound 0.01 µM)	relative viability (AZD8055 + Alpelisib; first compound 0.03162 µM)	relative viability (AZD8055 + Alpelisib; first compound 0.1 µM)	relative viability (AZD8055 + Alpelisib; first compound 0.3162 µM)	relative viability (AZD8055 + Alpelisib; first compound 1 µM)	relative viability (AZD8055 + Decitabine; first compound 0.01 µM)	relative viability (AZD8055 + Decitabine; first compound 0.03162 µM)	relative viability (AZD8055 + Decitabine; first compound 0.1 µM)	relative viability (AZD8055 + Decitabine; first compound 0.3162 µM)	relative viability (AZD8055 + Decitabine; first compound 1 µM)
COR-L 105	0.833	0.941	0.5	0.315	0.297	0.488	0.31	0.388	0.326	0.35	0.975	0.737	0.798	0.271	0.315	0.718	0.714	0.579	0.445	0.431
LK-2	0.334	0.28	0.249	0.164	0.238	0.571	0.438	0.368	0.335	0.195	1.03	0.658	0.447	0.331	0.265	0.273	0.19	0.156	0.146	0.144
NCI-H727	0.246	0.246	0.302	0.28	0.248	0.4	0.379	0.28	0.225	0.283	0.564	0.435	0.356	0.255	0.269	0.875	0.85	0.736	0.498	0.616
RERF-LC-KJ	0.86	0.739	0.597	0.44	0.352	0.566	0.452	0.426	0.309	0.289	0.77	0.576	0.552	0.4	0.442	0.589	0.68	0.666	0.383	0.395
NCI-H2023	0.45	0.343	0.28	0.17	0.12	0.215	0.195	0.137	0.12	0.116	0.439	0.431	0.311	0.141	0.141	0.243	0.161	0.175	0.129	0.118
NCI-H322M	0.891	0.771	0.557	0.497	0.461	0.46	0.463	0.436	0.444	0.422	0.696	0.0834	0.673	0.433	0.402	0.71	0.601	0.617	0.555	0.588
NCI-H1666	0.802	0.666	0.417	0.552	0.375	0.333	0.491	0.347	0.272	0.38	0.884	0.696	0.621	0.47	0.438	0.744	0.685	0.627	0.702	0.685
NCI-H1648																0.422	0.504	0.42	0.277	0.261
